Measurements as given in patent publication US20040131686A1, “Composition and method for treatment of bacterial vaginal infections” (priority 2003, published 2004).
Where a name gives a salt, the structure may show the parent alone.

Legend:
[1] = system: Staphylococcus aureus (ATCC #6538); assay: Zone of inhibition on agar plate inoculated with Staphylococcus aureus; assay type: cell-based
Procedure: About 1 grams of each gelled composition was deposited on an agar plate that was previously inoculated with E. coli (ATCC #11229), a Gram-negative bacterium, and the plates were incubated for about 20 to about 28 hours at a temperature of about 35 to about 39° C. Antibacterial activity was evaluated by measuring the diameter of the zone of inhibition (i.e., a clear zone with no bacterial colonies present, measured in millimeters) around the deposited gel.
Similar plates were prepared wherein the inoculant was Staphylococcus aureus (ATCC #6538), a Gram-positive bacterium.
(§1) A commercially available vaginal cream formulation of benzydamine hydrochloride, TANTUM ROSA® cream, available from Angelini Pharmaceuticals, Rome, Italy was also evaluated, for comparison. According to the manufacturer's product literature TANTUM ROSA® cream contains about 0.5% benzydamine hydrochloride in a cream base containing propylene glycol, saturated triglycerides, ceteth 20, hydroxyethyl cellulose, sodium citrate dihydrate, citric acid monohydrate, benzoic acid, and purified water. In addition, a simple aqueous solution containing 0.5% by weight of benzydamine hydrochloride in deionized water was tested as a positive control. All materials were tested in triplicate.

E. coli (ATCC #11229) = assay: Zone of inhibition on agar plate inoculated with E. coli; assay type: cell-based
Procedure: as §1, with “Antibacterial activity was evaluated by measuring the diameter of the zone of inhibition (i.e., a clear zone with no bacterial colonies present, measured in millimeters) around the deposited gel. A commercially” for “A commercially”, “available from […] Pharmaceuticals, Rome,” for “available from Angelini Pharmaceuticals, Rome,”

[2] = about 1 gram of composition on inoculated agar plate, about 20 to 28 hours, about 35 to 39° C., triplicate

CN(C)CCCOc1nn(Cc2ccccc2)c2ccccc12 [B-HCl, Benzydamine hydrochloride]
Staphylococcus clear zone (diameter of zone of inhibition) [1, 2]: 14 mm
Antibacterial activity against Gram-positive bacteria (Staphylococcus aureus), in words ([1]; inhibition test on agar plate): effective
E. coli clear zone (diameter of zone of inhibition) (E. coli (ATCC #11229); [2]): 12 mm
Antibacterial activity against Gram-negative bacteria (E. coli), in words (E. coli (ATCC #11229); inhibition test on agar plate): effective
